Laboratory results: patent US20230381127A1, “COMPOSITIONS AND METHODS FOR MOOD ENHANCEMENT” (EPITRACKER, INC., priority 2020, published 2023)

Experiments:
[1] = Customer testimonials on stress and mood with fatty15 (C15:0) supplement; type: in vivo, human; settings: daily oral supplementation 100 mg/day (fatty15); summary of testimonials in the 1st table
Protocol: An odd-chain saturated fatty acid dietary supplement, containing an encapsulated pure (>98%) free fatty acid C15:0 powder and called fatty15™, is available as a consumer health product. Recommended dosing is a single, 100 mg capsule taken orally once a day. Customers were provided opportunities to share their experience, including through voluntary surveys and customer rating programs.

[2] = target: T1, CB2 (Homo sapiens, UniProt P34972); test: SAFETYscan E/IC50 ELECT functional assay, CB2 receptor agonist mode; type: cell-based; settings: at 20 μM; relative to positive control CP 55940 assigned 100% activity
T1 construct: purchased DiscoverX/Eurofins SAFETYscan E/IC50 ELECT
T1 sequence (P34972 whole entry): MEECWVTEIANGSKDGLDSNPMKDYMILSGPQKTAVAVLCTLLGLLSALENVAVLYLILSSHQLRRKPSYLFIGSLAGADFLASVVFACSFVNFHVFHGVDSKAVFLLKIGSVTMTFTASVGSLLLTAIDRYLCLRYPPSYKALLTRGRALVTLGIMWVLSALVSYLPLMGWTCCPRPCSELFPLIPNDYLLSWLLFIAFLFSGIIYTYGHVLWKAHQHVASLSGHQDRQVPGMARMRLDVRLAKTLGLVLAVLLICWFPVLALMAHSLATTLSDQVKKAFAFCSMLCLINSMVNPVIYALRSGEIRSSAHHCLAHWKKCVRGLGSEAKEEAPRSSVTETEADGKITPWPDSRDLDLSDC
From the text: (§1) This study assessed potential pharmacologic targets of pentadecanoic acid. Specifically, this study examined agonist and antagonist activities of synthetic pentadecanoic acid across 78 assays using SAFETYscan E/IC50 ELECT (DiscoverX/Eurofins, Fremont, California). Briefly, a variety of standardized and optimized functional assays were used to assess pentadecanoic acid's pharmacologic targets, including G protein coupled receptors (ADORA2A, ADRA1A, ADRA2A, ADRB1, ADRB2, CB1, CB2, CCK1, D1, D2S, ETA, H1, H2, M1 M2, M3, OPRD1, OPRK1, OPRM1, 5HTR1A, 5HTR1B, 5HTR2A, 5HTR2B, AVPR1A), kinases (LCK, INSR, VEGFR2, ROCK1), transporters (DAT, NET, SERT), ion channels (GABAA, 5-HT3, CA1.2, HERG, KVLQT1/MINK, NA1.5, NMDAR1/2B, NACHR), nuclear receptors (AR, GR), and non-kinase enzymes (COX1, COX2, ACHE, MAOA, PDE3A, PDE4D2). Ten-point concentration curves for both agonist (EC50) and antagonist (IC50) activity were established for each target. Maximum activity (%) was also determined based on comparisons with internal positive controls, which were assigned 100% activity.

[3] = target: T2, CB1 (Homo sapiens, UniProt P21554); test: SAFETYscan E/IC50 ELECT functional assay, CB1 receptor agonist mode; type: cell-based; settings: at 20 μM; relative to positive control CP 55940 assigned 100% activity
T2 construct: purchased DiscoverX/Eurofins SAFETYscan E/IC50 ELECT
T2 sequence (P21554 whole entry): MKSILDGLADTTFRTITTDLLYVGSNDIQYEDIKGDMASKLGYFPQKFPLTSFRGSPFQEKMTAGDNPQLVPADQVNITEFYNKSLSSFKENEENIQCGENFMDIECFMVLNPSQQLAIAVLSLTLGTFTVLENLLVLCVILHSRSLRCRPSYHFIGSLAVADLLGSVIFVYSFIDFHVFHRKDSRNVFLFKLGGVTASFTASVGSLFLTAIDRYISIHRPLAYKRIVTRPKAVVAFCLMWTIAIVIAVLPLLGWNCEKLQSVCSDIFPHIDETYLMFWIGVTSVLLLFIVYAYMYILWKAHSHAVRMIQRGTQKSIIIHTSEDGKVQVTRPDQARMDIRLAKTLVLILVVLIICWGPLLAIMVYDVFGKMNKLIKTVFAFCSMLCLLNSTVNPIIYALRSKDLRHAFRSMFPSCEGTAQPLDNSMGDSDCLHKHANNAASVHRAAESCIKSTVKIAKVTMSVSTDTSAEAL
From the text: as §1

[4] = 6-week voluntary electronic customer survey on stress and mood after daily fatty15 (C15:0) supplement; type: in vivo, human; settings: 100 mg daily oral (fatty15 capsule), 6 weeks; 135 responders; response of 7 or greater on 1-10 scale = agreement
Protocol: An odd-chain saturated fatty acid dietary supplement, containing an encapsulated pure (>98%) free fatty acid C15:0 powder and called fatty15™, was available as a consumer health product. Recommended dosing is a single, 100 mg capsule taken orally once a day.
6-Week Survey. Approximately six weeks following receipt of the C15:0 supplement, fattyl5, customers were provided a voluntary electronic questionnaire to evaluate potential near-term benefits, including the questions: “Overall how much would you agree with the following statement: Since starting fatty15, I have been feeling more calm and/or less stressed.” and “Overall how much would you agree with the following statement: Since starting fatty15, I generally feel happier and/or not as bothered by things that used to upset me.”
Survey responders were asked to select a number between 1 and 10, in which 1=Strongly disagree and 10=Strongly agree. A response of 7 or greater was considered an agreement with the statement. Survey responders were also asked if fatty15 had become a part of their daily health routine.

With `CCCCCCCCCCCCCCC(=O)O` [pentadecanoic acid] the “effect on stress and mood per customer testimonials” value [1] was “can lower stress and calm and enhance mood”, the CB2 agonist activity [2] was 18.2% and the CB1 agonist activity [3] was 24.5%. For the same molecule, the “customers reporting feeling calmer and/or less stressed” value [4] was 41% and the “customers reporting feeling generally happier and/or not as bothered by things that used to upset them” value [4] was 37%.
